The target in the data set is T1, BCRP/ABCG2 (Homo sapiens, UniProt Q9UNQ0).
T1 construct: expressed in transfected cells; host or cells: HEK-293 transfected with pcDNA3.1-ABCG2
T1 sequence (Q9UNQ0 1-655): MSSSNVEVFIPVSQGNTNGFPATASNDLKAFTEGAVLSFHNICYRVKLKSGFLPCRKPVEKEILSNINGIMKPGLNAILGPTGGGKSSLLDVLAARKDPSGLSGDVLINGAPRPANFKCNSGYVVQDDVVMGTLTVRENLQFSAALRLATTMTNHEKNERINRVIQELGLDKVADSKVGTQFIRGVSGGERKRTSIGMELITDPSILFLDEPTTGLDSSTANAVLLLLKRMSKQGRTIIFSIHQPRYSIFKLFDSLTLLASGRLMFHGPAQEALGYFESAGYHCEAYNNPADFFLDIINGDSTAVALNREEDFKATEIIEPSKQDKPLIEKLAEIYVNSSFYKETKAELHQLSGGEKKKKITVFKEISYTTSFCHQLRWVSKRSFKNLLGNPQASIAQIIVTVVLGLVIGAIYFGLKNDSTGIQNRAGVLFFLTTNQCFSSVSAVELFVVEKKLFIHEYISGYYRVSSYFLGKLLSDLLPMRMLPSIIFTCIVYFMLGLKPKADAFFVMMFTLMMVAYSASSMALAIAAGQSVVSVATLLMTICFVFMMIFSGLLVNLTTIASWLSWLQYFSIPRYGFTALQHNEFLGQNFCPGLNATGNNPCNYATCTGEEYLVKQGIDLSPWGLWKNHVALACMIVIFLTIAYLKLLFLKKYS
Briefly: Flow cytometry: mitoxantrone efflux induced by ABCG2 in transfected HEK-293 cells. Type of data set: cell-based. To be noted: for inhibition at 2 μM / inhibition at 10 μM: human, HEK-293 cells transfected with ABCG2 (vector pcDNA3.1), probe mitoxantrone (5 μM); for inhibition at 2 μM: 2 μM compound, read-out: BCRP/ABCG2 % efficacy 2 μM; for inhibition at 2 μM / inhibition at 10 μM / BCRP/ABCG2 IC50, μM / IC50: mitoxantrone efflux, HEK-293 cells; for inhibition at 10 μM: 10 μM compound, three independent experiments, read-out: BCRP/ABCG2 % efficacy 10 μM. The source says: Cell cultures. The human […] HEK-293 transfected with the vector pcDNA3.1 including or not the gene encoding ABCG2 (Robey, R. W., Honjo, Y., Morisaki, K., Nadjem, T. A., Runge, S., Risbood, M., Poruchynsky, M. S., Bates, S. E. 2003, Br. J. Cancer 89(10) 1971-1978) was used to test the efficacy of the products on ABCG2. The newborn hamster kidney cell line BHK21 either natural (negative control) or transfected with the vector pNUT-MRP/His expressing the gene encoding ABCC1 (Chang, Xiu-Bao, Hou, Yue-Xian, Riordan, John R. 1997, J. Biol. Chem. 272(49) 30962-30968) was used to test the efficacy of the products on ABCC1. The cell line NIH3T3 natural or transfected with the vector pHaMDR1/A expressing ABCB1 (Cardarelli, Carol O., Aksentijevich, Ivan, Pastan, Ira, Gottesman, Michael M. 1995 Cancer Res. 55 1086-1091) was used to test the efficacy of the compounds on ABCB1. The various cell types are cultured according to the protocols described previously (Robey, R. W., Honjo, Y., Morisaki, K., Nadjem, T. A., Runge, S., Risbood, M., Poruchynsky, M. S., Bates, S. E. 2003, Br. J. Cancer 89(10) 1971-1978 for the line HEK293, Chang, Xiu-Bao, Hou, Yue-Xian, Riordan, John R. 1997, J. Biol. Chem. 272(49) 30962-30968 for the line BHK21 and Cardarelli, Carol O., Aksentijevich, Ivan, Pastan, Ira, Gottesman, Michael M. 1995 Cancer Res. 55 1086-1091 for the line NIH3T3).
FIG. 1 schematically illustrates an efflux of substrate induced by a typical ABC transporter. The substrates S, such as mitoxantrone effluxed with ABCG2 and ABCB1 or daunorubicin effluxed with ABCC1, are accumulated in the cells and expelled by the transporter T, leading to a decrease in intracellular fluorescence. In the case of accumulation of the product, typically by inhibition of the efflux protein, the intracellular fluorescence increases.
Flow cytometry. Transfected or untransfected HEK-293 and BHK-21 cells are in a first stage placed in contact with substrate (5 μM mitoxantrone or 1 μM daunorubicin depending on the transporter). The substrate is accumulated for 30 minutes at 37° C. in the presence or absence of varied concentrations of the test molecules, at 0.5% of DMSO final. After washing with PBS, the cells are incubated in medium containing the same concentrations of test molecules as previously, for 1 hour at 37° C. The drug intracellular fluorescence is measured with a FACscan flow cytometer (Becton Dickinson, Mountain View, Calif.). The fluorescent substrates are excited at 488 nm; the fluorescence emission of mitoxantrone (MTX) is measured at 650 nm and that of daunorubicin is measured at 530 nm. The efficacy of the test molecules is estimated by means of equation 1:
% efficacy=100×(FA−FBG)/(FC−FBG),
in which: • FA corresponds to the intracellular level of substrate measured in the cells overexpressing the transporter T (corresponding to the lowest level of fluorescence in the absence of inhibitor), • FC corresponds to the fluorescence in the control cells not expressing the test transporter. This is thus the maximum accumulation of substrate in the cells), • FBG corresponds to the fluorescence measured in the absence of substrate and in the presence of inhibitor.
The compounds presented in TABLES 2 to 5 were tested by flow cytometry on mammalian cell lines selectively expressing the efflux proteins ABCG2, ABCB1 or ABCC1, as described previously.
The mitoxantrone efflux induced by ABCG2 or ABCB1 and the daunorubicin efflux induced by ABCC1 are estimated by flow cytometry, as described previously, at 10 μM of each test compound, and then at 2 μM for the compounds showing at least 80% efficacy at 10 μM. The concentration inducing 50% inhibition (IC50) was estimated for the most efficient aza derivatives. The values are obtained by three independent experiments and were adjusted using the SigmaPlot software.
For orientation: Flow cytometry measures light scatter and fluorescence of single cells or particles in a stream.

Structures are written as SMILES. Where “and” joins values, the source holds several entries; their conditions need not be identical. Identical values can stand only once.

As a reminder, the IC50 is the concentration at which inhibition is half-maximal. Higher therefore signals a need for much substance. For the compound `CC(C)(C)OC(=O)N[C@H](CNN(CCCCCCNC(=O)OCc1ccccc1)C(=O)OC(C)(C)C)CC(=O)OCc1ccccc1` [IB.1, Benzyl ester of (3S)-4-[2-(6-benzyloxycarbonylaminohexyl)-2-tert-butoxycarbonylhydrazino]-3-tert-butoxycarbonylaminobutyric acid], the inhibition at 2 μM was 72 ± 1%; the inhibition at 10 μM was 87 ± 27%; the “BCRP/ABCG2 IC50, μM” value was “micromolar or submicromolar”; the IC50 was 900 ± 50 nM.

In the case of `CC(C)(C)OC(=O)NN(C(=O)N[C@@H](CCCCNC(=O)OCc1ccccc1)C(=O)OC(C)(C)C)c1cccc(C(=O)OCc2ccccc2)c1` [IA.2, tert-Butyl ester of (2S)-6-(benzyloxycarbonylamino)-2-[1-(3′-(benzyloxycarbonyl)phenyl)-2-(tert-butoxycarbonyl)hydrazino-carbonylamino]hexanoic acid], the inhibition at 2 μM was determined as 86 ± 14%; the inhibition at 10 μM amounted to 112 ± 26%; the IC50 is 1000 nM and 1060 nM. The “selectivity toward one or other of the proteins BCRP or P-gp” value (BCRP versus P-gp) is reported as “selective”.

Take `CC(C)(C)OC(=O)NN(C(=O)N[C@@H](CCCCNC(=O)OCc1ccccc1)C(=O)OC(C)(C)C)c1ccccc1C(=O)OCc1ccccc1` [IA.1, tert-Butyl ester of (2S)-6-(benzyloxycarbonylamino)-2-[1-(2′-(benzyloxycarbonyl)phenyl)-2-(tert-butoxycarbonyl)hydrazino-carbonylamino]hexanoic acid]: the inhibition at 2 μM was determined as 53 ± 10%, the inhibition at 10 μM worked out at 112 ± 6% and the IC50 turned out to be 2000 nM.

In the case of `CC(C)(C)OC(=O)N[C@H](CNN(CCCCCCNC(=O)OCc1ccccc1)C(=O)OCc1ccccc1)CC(=O)OCc1ccccc1` [IB.11, Benzyl ester of (3S)-4-[2-benzyloxycarbonyl-2-(6-benzyloxycarbonylaminohexyl)hydrazino]-3-tert-butoxycarbonyl-aminobutyric acid], the inhibition at 2 μM came to 92 ± 2%; the inhibition at 10 μM is 104 ± 10%; the “BCRP/ABCG2 IC50, μM” value is reported as “micromolar or submicromolar”; the concentration for half-maximal inhibition (IC50) was determined as 500 ± 50 nM.

Values taken from US20120010161A1, “NOVEL AZAPEPTIDE OR AZAPEPTIDOMIMETIC COMPOUNDS INHIBITING BCRP AND/OR P-GP” (CENTRE NATIONAL DE LA RECHERCHE SCIENTIFIQUE, priority 2009, published 2012).
